From ChEMBL document CHEMBL5316327, “Design and Synthesis of Orally Active Quinolyl Pyrazinamides as Sigma 2 Receptor Ligands for the Treatment of Pancreatic Cancer” (J Med Chem, 2023)
Active and inactive are the calls of the source. No cut-off for these calls is given here.

Columns and labels:
HCT-116 [1] = experiment: Induction of cell cycle arrest in human HCT-116 cells assessed as accumulation of cells in S phase at 10 uM measured after 24 hrs by propidium iodide staining-based flow cytometric analysis (reference value: 47%); assay type: functional
MIA PaCa-2 [2] = experiment: Induction of cell cycle arrest in human MIA PaCa-2 cells assessed as accumulation of cells in S phase at 5 uM measured after 24 hrs by propidium iodide staining-based flow cytometric analysis (reference value: 31%); assay type: functional
MIA PaCa-2 [3] = experiment: Additive ferroptosis activity in human MIA-PaCa-2 cells at upto 1 uM measured after 7 days in presence of erastin by crystal violet staining based analysis; assay type: functional, cell-based; details: time 7.0 day
[4] = Cytotoxicity against HFF-1 cells measured after 72 hrs by MTT assay; assay type: toxicity, cell-based; details: human
HCT-116 [5] = experiment: Induction of cell cycle arrest in human HCT-116 cells assessed as accumulation of cells in G2/M phase at […] measured after 24 hrs by propidium iodide staining-based flow cytometric analysis (reference value: 10%); assay type: functional; details: dose 2.5 µM
MIA PaCa-2 [6] = experiment: Additive ferroptosis activity in human MIA-PaCa-2 cells at upto 1 uM measured after 7 days in presence of ferrostatin-1 by crystal violet staining based analysis; assay type: functional, cell-based; details: time 7.0 day
MIA PaCa-2 [7] = experiment: Synergistic cytotoxicity in human MIA PaCa-2 cells at upto 1 uM measured after 7 days in presence of gemcitabine by crystal violet staining based analysis; assay type: functional, cell-based; details: time 7.0 day
MIA PaCa-2 [8] = experiment: Additive ferroptosis activity in human MIA-PaCa-2 cells at upto 1 uM measured after 7 days in presence of deferoxamine by crystal violet staining based analysis; assay type: functional, cell-based; details: time 7.0 day
PANC-1 = experiment: cells; details: Homo sapiens, PANC-1, 72 h
HCT-116 [9] = experiment: Induction of apoptosis in human HCT-116 cells assessed as late apoptotic cells at […] measured after 48 hrs by Annexin V-Alexa Fluor 488/propidium iodide staining based flow cytometry (reference value: 8.48%); assay type: functional; details: dose 2.5 µM
HCT-116 [10] = experiment: Induction of apoptosis in human HCT-116 cells assessed as late apoptotic cells at 5.0 uM measured after 48 hrs by Annexin V-Alexa Fluor 488/propidium iodide staining based flow cytometry (reference value: 8.48%); assay type: functional
MIA PaCa-2 [11] = experiment: Synergistic ferroptosis activity in human MIA-PaCa-2 cells at upto 1 uM measured after 7 days in presence of chloroquine by crystal violet staining based analysis; assay type: functional, cell-based; details: time 7.0 day
MIA PaCa-2 [12] = experiment: Induction of apoptosis in human MIA PaCa-2 cells assessed as late apoptotic cells at 10.0 uM measured after 48 hrs by Annexin V-Alexa Fluor 488/propidium iodide staining based flow cytometry (reference value: 6.63%); assay type: functional
MIA PaCa-2 [13] = experiment: Additive cytotoxicity against human MIA PaCa-2 cells at upto 1 uM measured after 7 days in presence of copper chloride by crystal violet staining based analysis; assay type: functional, cell-based; details: time 7.0 day
HCT-116 [14] = experiment: Induction of cell cycle arrest in human HCT-116 cells assessed as accumulation of cells in G2/M phase at 1 uM measured after 24 hrs by propidium iodide staining-based flow cytometric analysis (reference value: 10%); assay type: functional
[15] = Toxicity in C57BL/6 mouse assessed as effect on body weight at 30 mg/kg, po administered for 32 days and measured on day 1 to 3,5,6,8 to 32 in presence of copper sulfate; assay type: organism-based; details: in vivo, 768 h, time 32 day
MIA PaCa-2 [16] = experiment: Synergistic cytotoxicity in human MIA PaCa-2 cells at upto 1 uM measured after 7 days in presence of oxaliplatin by crystal violet staining based analysis; assay type: functional, cell-based; details: time 7.0 day
HCT-116 [17] = experiment: Induction of apoptosis in human HCT-116 cells assessed as necrotic cells at 5.0 uM measured after 48 hrs by Annexin V-Alexa Fluor 488/propidium iodide staining based flow cytometry (reference value: 9.06%); assay type: functional
[18] = AUC (0 to infinity) in CD-1 mouse plasma at 20 mg/kg, po; assay type: ADME, organism-based; set-up: dose 20 mg/kg, route po
HCT-116 [19] = experiment: Antagonistic cytotoxicity against human HCT-116 cells at upto 1 uM measured after 6 days in presence of elesclomol by crystal violet staining based analysis; assay type: functional, cell-based; details: time 6.0 day
MIA PaCa-2 [20] = experiment: Synergistic cytotoxicity in human MIA PaCa-2 cells at upto 1 uM measured after 7 days in presence of paclitaxel by crystal violet staining based analysis; assay type: functional, cell-based; details: time 7.0 day
MIA PaCa-2 [21] = experiment: Synergistic cytotoxicity in human MIA PaCa-2 cells at upto 1 uM measured after 7 days in presence of CI-27 by crystal violet staining based analysis; assay type: functional, cell-based; details: time 7.0 day
HCT-116 [22] = experiment: Synergistic cytotoxicity against human HCT-116 cells at upto 1 uM measured after 6 days in presence of silver acetate by crystal violet staining based analysis; assay type: functional, cell-based; details: time 6.0 day
MIA PaCa-2 [23] = experiment: Synergistic cytotoxicity in human MIA PaCa-2 cells at upto 1 uM measured after 7 days in presence of doxorubicin by crystal violet staining based analysis; assay type: functional, cell-based; details: time 7.0 day
MIA PaCa-2 [24] = experiment: Induction of cell cycle arrest in human MIA PaCa-2 cells assessed as accumulation of cells in G0/G1 phase at […] measured after 24 hrs by propidium iodide staining-based flow cytometric analysis (reference value: 53%); assay type: functional; details: dose 2.5 µM
[25] = Metabolic stability in human liver microsomes assessed as half life at 10 uM measured upto 60 mins in presence of NADPH by LC-MS/MS analysis; assay type: ADME, Microsome; details: liver microsomes
[26] = AUC (0 to infinity) in CD-1 mouse plasma at 10 mg/kg, iv; assay type: ADME, organism-based; set-up: dose 10 mg/kg, route iv
[27] = Apparent volume of distribution during terminal phase in CD-1 mouse plasma at 20 mg/kg, po; assay type: ADME, organism-based; details: read-out: Vz/F
[28] = AUC (0 to time of last detectable concentration) in CD-1 mouse plasma at 10 mg/kg, iv; assay type: ADME, organism-based; set-up: dose 10 mg/kg, route iv
HCT-116 [29] = experiment: Antagonistic cytotoxicity against human HCT-116 cells at upto 1 uM measured after 6 days in presence of disulfiram by crystal violet staining based analysis; assay type: functional, cell-based; details: time 6.0 day
[30] = Toxicity in C57BL/6 mouse assessed as effect on body weight at 60 mg/kg, ip measured upto 28 days; assay type: organism-based; details: in vivo, 672 h, time < 28 day
MIA PaCa-2 [31] = experiment: Synergistic cytotoxicity in human MIA PaCa-2 cells at upto 1 uM measured after 7 days in presence of SC144 by crystal violet staining based analysis; assay type: functional, cell-based; details: time 7.0 day
MIA PaCa-2 [32] = experiment: Induction of apoptosis in human MIA PaCa-2 cells assessed as early apoptotic cells at 10.0 uM measured after 48 hrs by Annexin V-Alexa Fluor 488/propidium iodide staining based flow cytometry (reference value: 4.11%); assay type: functional
[33] = target: Muscarinic acetylcholine receptor M1 (Homo sapiens, UniProt P11229); experiment: Binding affinity to M1 receptor (unknown origin) assessed as inhibition constant
Muscarinic acetylcholine receptor M1, sequence (P11229 whole entry): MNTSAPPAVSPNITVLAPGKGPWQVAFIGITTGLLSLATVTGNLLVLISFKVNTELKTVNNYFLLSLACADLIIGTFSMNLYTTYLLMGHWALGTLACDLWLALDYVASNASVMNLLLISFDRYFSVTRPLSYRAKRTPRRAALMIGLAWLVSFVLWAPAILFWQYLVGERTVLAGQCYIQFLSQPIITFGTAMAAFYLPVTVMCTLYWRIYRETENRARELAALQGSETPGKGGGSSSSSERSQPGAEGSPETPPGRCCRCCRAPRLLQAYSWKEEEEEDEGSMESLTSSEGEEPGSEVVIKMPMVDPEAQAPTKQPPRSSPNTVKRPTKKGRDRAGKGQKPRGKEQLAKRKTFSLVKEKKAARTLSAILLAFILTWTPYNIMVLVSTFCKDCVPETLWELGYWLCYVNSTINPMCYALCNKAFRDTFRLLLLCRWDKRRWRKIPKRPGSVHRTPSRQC

MIA PaCa-2 [34] = experiment: Induction of cell cycle arrest in human MIA PaCa-2 cells assessed as accumulation of cells in G2/M phase at 1 uM measured after 24 hrs by propidium iodide staining-based flow cytometric analysis (reference value: 16%); assay type: functional
[35] = Toxicity in C57BL/6 mouse assessed as effect on body weight at 30 mg/kg, po measured upto 32 days in presence of copper sulfate; assay type: organism-based; details: in vivo, 768 h, time < 32 day
HCT-116 [36] = experiment: Induction of apoptosis in human HCT-116 cells assessed as early apoptotic cells at 10.0 uM measured after 48 hrs by Annexin V-Alexa Fluor 488/propidium iodide staining based flow cytometry (reference value: 2.77%); assay type: functional

CCN(CC)CCCC(C)Nc1cnc(C(=O)Nc2ccc(Cl)c3cccnc23)cn1 (configuration not stated)
Activity (HCT-116 [1]): 20%
Activity (MIA PaCa-2 [2]): 22%
Activity (MIA PaCa-2 [3]): Active
IC50 at 72 h [4]: 8 µM
Activity (HCT-116 [5]): 19%
Activity (MIA PaCa-2 [6]): Active
Activity (MIA PaCa-2 [7]): inactive
Activity (MIA PaCa-2 [8]): Active
IC50 (PANC-1): 4 µM
Activity (HCT-116 [9]): 20.26%
Activity (HCT-116 [10]): 18.39%
Activity (MIA PaCa-2 [11]): Active
Activity (MIA PaCa-2 [12]): 53.96%
Activity (MIA PaCa-2 [13]): Active
Activity (HCT-116 [14]): 25%
Activity [15]: Non-Toxic
Activity (MIA PaCa-2 [16]): inactive
Activity (HCT-116 [17]): 5.1%
AUC(0-inf) [18]: 3390 ng·h/mL
Activity (HCT-116 [19]): inactive
Activity (MIA PaCa-2 [20]): inactive
Activity (MIA PaCa-2 [21]): inactive
Activity (HCT-116 [22]): inactive
Activity (MIA PaCa-2 [23]): inactive
Activity (MIA PaCa-2 [24]): 49%
half-life at 10 µM [25]: > 1 h
AUC(0-inf) [26]: 2680 ng·h/mL
Vd/F [27]: 51.8 L/kg
AUC [28]: 2600 ng·h/mL
Activity (HCT-116 [29]): inactive
Activity [30]: Non-Toxic
Activity (MIA PaCa-2 [31]): inactive
Activity (MIA PaCa-2 [32]): 32.58%
Ki [33]: 4.2 µM
Activity (MIA PaCa-2 [34]): 13%
Activity [35]: Non-Toxic
Activity (HCT-116 [36]): 16.72%
